{"source": "patent US20260265409A1", "about": "“ANTIBODY FUSION PROTEIN TARGETING FAP AND TGFbeta, AND USE THEREOF” (NANJING LEADS BIOLABS CO., LTD., priority 2022, published 2026)", "key": {"[1]": {"target": "T1, human FAP protein expressed on 293T cells (Homo sapiens, UniProt Q12884)", "T1 construct": "expressed in transfected cells; host or cells: 293T cells, PIRES-puro3 vector, puromycin selection", "T1 sequence (Q12884 1-760)": "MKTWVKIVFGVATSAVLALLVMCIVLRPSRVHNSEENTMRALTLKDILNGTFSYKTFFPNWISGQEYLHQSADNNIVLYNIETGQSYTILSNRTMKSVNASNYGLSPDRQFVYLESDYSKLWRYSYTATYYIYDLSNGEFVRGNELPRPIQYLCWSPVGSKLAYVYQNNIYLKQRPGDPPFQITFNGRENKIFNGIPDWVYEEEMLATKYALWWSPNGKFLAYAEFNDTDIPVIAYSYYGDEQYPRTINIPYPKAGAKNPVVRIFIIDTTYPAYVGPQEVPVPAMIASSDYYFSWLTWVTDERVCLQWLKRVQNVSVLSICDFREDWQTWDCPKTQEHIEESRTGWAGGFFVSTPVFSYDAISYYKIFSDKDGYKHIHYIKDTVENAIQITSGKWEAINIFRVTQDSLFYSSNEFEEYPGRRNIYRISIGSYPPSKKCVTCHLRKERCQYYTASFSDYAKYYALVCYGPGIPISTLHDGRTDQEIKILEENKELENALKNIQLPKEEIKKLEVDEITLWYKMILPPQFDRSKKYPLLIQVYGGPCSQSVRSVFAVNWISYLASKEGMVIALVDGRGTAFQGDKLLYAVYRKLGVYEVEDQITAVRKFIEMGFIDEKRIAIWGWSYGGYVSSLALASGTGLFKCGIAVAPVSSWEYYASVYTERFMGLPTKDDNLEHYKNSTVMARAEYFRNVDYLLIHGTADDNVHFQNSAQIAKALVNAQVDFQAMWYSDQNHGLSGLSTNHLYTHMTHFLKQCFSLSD", "test": "Cell binding assay by flow cytometry, 293T-human FAP cells", "protocol": "Whether the humanized antibody of the present disclosure can bind to human FAP protein stably expressed on the surface of 293T cells was determined by a cell binding assay. Firstly, the sequences encoding human FAP protein (NM_004460.2, SEQ ID NO: 31) and cynomolgus FAP (XM_005573320.2, SEQ ID NO: 32) were cloned into expression vector PIRES-puro3 (Clontech, Cat #631619) […]. The vectors were used to transfect 293T cells. […]\nThe human FAP antibodies (huF19-LG and sibrotuzumab) were 4-fold serially diluted from a starting concentration of 200 nM to a total of 8 concentrations and added to the cells for co-incubation at 4° C. for 30 min. […] The cells were washed twice with PBS and then resuspended, and finally, fluorescence signals were detected using the […] (BD Bioscience) flow cytometer.\nWhether the mutant antibody in the present disclosure can bind to human or cynomolgus FAP protein stably expressed on the surface of 293T cells was determined by a cell binding assay. […] The cells were washed twice with PBS and then resuspended, and finally, fluorescence signals were detected using the […] (BD Bioscience) flow cytometer. […]"}, "[2]": {"tested_on": "bilateral idiopathic pulmonary fibrosis model", "test": "Bleomycin-induced idiopathic pulmonary fibrosis (IPF) model in mice", "assay_type": "in vivo, C57BL/6 mice", "protocol": "In this animal pharmacodynamic study, a bilateral idiopathic pulmonary fibrosis model was induced using bleomycin instillation into the trachea of mice supplied by KCl BioTech. The efficacy of the surrogate antibody fusion protein 28H1-Trap on pulmonary fibrosis was evaluated in this model. C57BL/6 mice (Cavens Biogle (Suzhou) Co., Ltd.) aged 8-9 weeks were treated from the day of modeling and the induced pulmonary fibrosis model was established by tracheal instillation of bleomycin after the treatment. In the next three weeks, intraperitoneal doses were given twice weekly, and the body weight was measured once every two days. The specific treatments and dosages are shown in the following table: Mice were euthanized at the end of study. At the end of study, both lungs were collected from 15 surviving animals in each group (6 in the normal group) and fixed by formalin perfusion. Histological sections were made, stained with Masson, imaged (FIGS. 7A-H), and graded by pulmonary fibrosis scores. Pathological staining results are shown in FIG. 7, where black arrows indicate intact alveolar structures and the dark interstitial parts indicate collagen accumulation."}, "[3]": {"tested_on": "renal interstitium fibrosis model induced by left ureter ligation", "test": "UUO renal interstitium fibrosis model in mice", "assay_type": "in vivo, C57BL/6J mice", "details": "20 mg/kg and 3 mg/kg intraperitoneal every other day, day 10; FIG. 9, FIG. 10", "protocol": "In this animal pharmacodynamic study, a renal interstitium fibrosis model was induced by left ureter ligation in mice supplied by KCl BioTech. The efficacy of the surrogate antibody fusion protein 28H1-Trap on renal fibrosis was evaluated in this model. C57BL/6J mice (Shanghai Jihui Laboratory Animal Care Co., Ltd.) aged 8-9 weeks were randomized by weight. On the day of modeling (day 0), the mice in groups 2-4 were anesthetized with isoflurane. The abdominal cavity was opened along the ventral midline, and the left ureter of the animal was ligated. The abdomen was closed and the skin was sutured. The treatment was given intraperitoneally on the day of modeling. The animals in group 1 were anesthetized with isoflurane. The abdominal cavity was opened along the ventral midline and closed immediately, and the skin was sutured. In the next 10 days, the treatments were given intraperitoneally once every other day, and the body weight was measured once every two days. The specific treatments and dosages are shown in the following table: The animals were given an I.P. injection of the test substance on days 0, 2, 4, 6, and 8, and the animals were given the analgesic meloxicam subcutaneously on days 1-3. The body weight was recorded daily. The kidney on the UUO side were scored for fibrosis by Masson staining. […] The degree of fibrosis of the kidney was evaluated (see FIG. 10)."}}}
{"substance": "28H1-Trap: pharmacodynamic surrogate fusion protein: anti-FAP antibody 28H1 (WO2012020006) fused to TGFβR2 extracellular domain; heavy chain SEQ ID NO: 29, light chain SEQ ID NO: 28", "values": [{"measurement": "binding to human FAP protein expressed on engineered 293T cells (FACS)", "setting": "[1]", "value": "confirmed to bind to human FAP at cellular level"}, {"measurement": "pulmonary fibrosis grading (Ashcroft scoring)", "setting": "[2]; 20 mg/kg and 3 mg/kg vs modeling group, FIG. 8B", "value": "reduced the pulmonary fibrotic lesions in a dose-dependent manner"}, {"measurement": "grade of pulmonary fibrotic lesions (Masson staining, pathological sections)", "setting": "[2]; 20 mg/kg intraperitoneal twice weekly, 21 days, vs modeling group, FIG. 7", "value": "could reduce the grade of pulmonary fibrotic lesions"}, {"measurement": "pulmonary fibrosis staining scoring", "setting": "[2]; high dose (20 mg/kg) vs modeling group, FIG. 8A", "value": "can reduce fibrotic lesions in the lungs at a high dose"}, {"measurement": "kidney fibrosis score by Masson staining", "setting": "[3]", "value": "significant dose-dependent ameliorative effect on the fibrosis in the renal cortex of the kidney"}]}
